The target in one assay is T1, NKCC2 (Homo sapiens, UniProt Q13621).
T1 construct: expressed in transfected cells; host or cells: HEK293
T1 sequence (Q13621 1-1099): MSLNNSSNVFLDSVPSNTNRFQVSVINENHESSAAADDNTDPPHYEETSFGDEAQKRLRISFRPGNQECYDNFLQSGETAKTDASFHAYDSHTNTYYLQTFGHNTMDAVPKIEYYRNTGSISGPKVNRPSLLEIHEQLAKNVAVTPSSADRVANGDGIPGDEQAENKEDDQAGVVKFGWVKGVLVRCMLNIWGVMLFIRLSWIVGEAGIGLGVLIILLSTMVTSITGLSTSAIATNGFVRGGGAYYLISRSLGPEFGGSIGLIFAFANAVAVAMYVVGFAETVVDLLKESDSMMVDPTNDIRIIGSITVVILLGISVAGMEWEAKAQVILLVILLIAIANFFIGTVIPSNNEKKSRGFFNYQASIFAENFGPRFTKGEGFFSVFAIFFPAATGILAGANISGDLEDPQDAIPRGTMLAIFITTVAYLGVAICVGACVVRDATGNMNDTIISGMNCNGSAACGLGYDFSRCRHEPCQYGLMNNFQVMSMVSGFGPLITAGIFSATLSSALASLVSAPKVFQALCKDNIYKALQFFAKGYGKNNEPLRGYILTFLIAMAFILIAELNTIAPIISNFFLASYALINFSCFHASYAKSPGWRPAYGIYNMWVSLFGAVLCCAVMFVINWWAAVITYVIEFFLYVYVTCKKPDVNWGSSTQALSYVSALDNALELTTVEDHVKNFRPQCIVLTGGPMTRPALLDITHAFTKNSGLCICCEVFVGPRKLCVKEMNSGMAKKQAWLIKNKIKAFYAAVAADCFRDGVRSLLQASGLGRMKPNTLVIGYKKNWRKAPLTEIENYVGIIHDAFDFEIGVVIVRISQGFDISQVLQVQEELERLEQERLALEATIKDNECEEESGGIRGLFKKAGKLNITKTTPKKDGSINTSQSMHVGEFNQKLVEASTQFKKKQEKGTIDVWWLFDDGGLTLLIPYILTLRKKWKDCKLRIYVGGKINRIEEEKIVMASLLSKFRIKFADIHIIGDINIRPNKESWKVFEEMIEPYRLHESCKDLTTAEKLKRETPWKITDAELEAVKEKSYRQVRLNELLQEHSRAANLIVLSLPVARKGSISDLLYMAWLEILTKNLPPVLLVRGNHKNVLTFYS
Description: Thallium-based assay in NKCC2-transfected HEK293 cells. In kind it is cell-based. The conditions noted are these: 10 μM; NKCC2-transfected HEK293; Table 2. The source says: The Thallium-based assay is a standard assay used to measure activity of potassium transporters, like NKCC2 which is a sodium potassium and chloride co-transporter. The assay consists on the monitoring of the cells upon the application of thallium (which mimic K^+) and consequently NaCl, which entering into cells by NKCC2, activated by the presence of the chloride ions, binds the fluorescent dye, thus determining a fluorescence increase. This assay involves parallel testing in 96 wells for a quick and easy drug screening. In detail, kidney epithelial cells (HEK293) were transfected with NKCC2 transporters, or a mock construct (control). After two days, the cells were loaded with a thallium-sensitive fluorescent dye in a Cl-free medium. After 1 hour of incubation, the inhibitory activity of bumetanide and furosemide (as positive controls) and the new compounds by monitoring fluorescence upon application of thallium (to mimic K) and subsequently NaCl were tested. When entering cells by NKCC2 (activated by the presence of Cl), thallium binds the fluorescent dye and increases fluorescence. […] A decreased fluorescence in the mock-transfected cells treated with bumetanide and furosemide was observed. […] This latter result was used to normalize the fluorescence measurements obtained with the assay. In particular, the ΔF/F0 value of the mock-transfected cells (both control and treated) was subtracted from the respective ΔF/F0 value of the cells transfected with the Cl transporters. With this assay, the novel chemical entities were tested for their ability to block NKCC2 (Results in Table 2).
The arrow indicates the addition of thallium (final concentration 2 mM) and NaCl stimulus (135 mM) used to initiate the flux assay. b) Quantification of the effect of bumetanide, furosemide and 3 example compounds (3.8, 3.13, 3.17) in the thallium-based assay on NKCC2-transfected HEK293 cells. Data represents mean±sem from 5 independent experiments, and they are represented as % of the controls. *P<0.05, **P<0.01, ***P<0.001 Kruskal-Wallis Anova (Dunn's Post hoc Test); ###P<0.001 two-tailed unpaired Student t-test.
Consider `CCCCNc1cc(C(=O)O)cc(S(N)(=O)=O)c1Oc1ccccc1` [Bumetanide, reference compound], for which the inhibition (in general, the relative decrease from the control value, in per cent) at 10 µM worked out at 99%.

Turning to `CCCCNc1ccc([N+](=O)[O-])cc1S(N)(=O)=O` [Compound 1.6, 2-(butylamino)-5-nitro-benzenesulfonamide], 10 µM produced 4% inhibition.

The compound `CCCCCCNc1ccc([N+](=O)[O-])cc1S(N)(=O)=O` [Compound 1.7, 2-(hexylamino)-5-nitro-benzenesulfonamide] displayed an inhibition at 10 µM of 10%.

Consider `CCCCCCCCNc1ccc([N+](=O)[O-])cc1S(N)(=O)=O` [Compound 1.8, 5-nitro-2-(octylamino)benzenesulfonamide], for which the inhibition at 10 µM was 10%.

`CC(C)(C)CCNc1ccc([N+](=O)[O-])cc1S(N)(=O)=O` [Compound 1.9, 2-(3,3-dimethylbutylamino)-5-nitro-benzenesulfonamide] showed an inhibition at 10 µM of 0%.

Turning to `CCCCNc1ccc([N+](=O)[O-])cc1S(=O)(=O)NC` [Compound 1.10, 2-(butylamino)-N-methyl-5-nitro-benzenesulfonamide], the inhibition at 10 µM was 0%.

Take `CCCCCCNc1ccc([N+](=O)[O-])cc1S(=O)(=O)NC` [Compound 1.11, 2-(hexylamino)-N-methyl-5-nitro-benzenesulfonamide]: the inhibition at 10 µM came to 0%.

In the case of `CCCCCCCCNc1ccc([N+](=O)[O-])cc1S(=O)(=O)NC` [Compound 1.12, N-methyl-5-nitro-2-(octylamino)benzenesulfonamide], the inhibition at 10 µM was found to be 0%.

On to `CNS(=O)(=O)c1cc([N+](=O)[O-])ccc1NCCC(C)(C)C` [Compound 1.13, 2-(3,3-dimethylbutylamino)-N-methyl-5-nitro-benzenesulfonamide], for which 10 µM produced 0% inhibition.

For the compound `CCCCNc1ccc([N+](=O)[O-])cc1S(=O)(=O)N(C)C` [Compound 1.14, 2-(butylamino)-N,N-dimethyl-5-nitro-benzenesulfonamide], the inhibition at 10 µM was determined as 0%.

`CCCCCCNc1ccc([N+](=O)[O-])cc1S(=O)(=O)N(C)C` [Compound 1.15, 2-(hexylamino)-N,N-dimethyl-5-nitro-benzenesulfonamide] had an inhibition at 10 µM of 0%.

`CCCCCCCCNc1ccc([N+](=O)[O-])cc1S(=O)(=O)N(C)C` [Compound 1.16, N,N-dimethyl-5-nitro-2-(octylamino)benzenesulfonamide] yielded an inhibition at 10 µM of 0%.

`CN(C)S(=O)(=O)c1cc([N+](=O)[O-])ccc1NCCC(C)(C)C` [Compound 1.17, 2-(3,3-dimethylbutylamino)-N,N-dimethyl-5-nitro-benzenesulfonamide] gave an inhibition at 10 µM of 13%.

The compound `CCCCNc1cc(Cl)c(C(=O)O)cc1S(N)(=O)=O` [Compound 2.2, 4-(butylamino)-2-chloro-5-sulfamoyl-benzoic acid] had an inhibition at 10 µM of 0%.

For `CCCCCCNc1cc(Cl)c(C(=O)O)cc1S(N)(=O)=O` [Compound 2.3, 2-chloro-4-(hexylamino)-5-sulfamoyl-benzoic acid], the inhibition at 10 µM is 14%.

Regarding `CCCCCCCCNc1cc(Cl)c(C(=O)O)cc1S(N)(=O)=O` [Compound 2.4, 2-chloro-4-(octylamino)-5-sulfamoyl-benzoic acid], testing at 10 µM gave an inhibition of 16%.

Compound `CC(C)(C)CCNc1cc(Cl)c(C(=O)O)cc1S(N)(=O)=O` [Compound 2.5, 2-chloro-4-(3,3-dimethylbutylamino)-5-sulfamoyl-benzoic acid] displayed an inhibition at 10 µM of 0%.

On to `CCCCNc1ccc(C(=O)O)cc1S(N)(=O)=O` [Compound 2.6, 4-(butylamino)-3-sulfamoyl-benzoic acid], for which the inhibition at 10 µM worked out at 0%.

As to `CCCCCCNc1ccc(C(=O)O)cc1S(N)(=O)=O` [Compound 2.7, 4-(hexylamino)-3-sulfamoyl-benzoic acid], the inhibition at 10 µM is 0%.

Consider `CCCCCCCCNc1ccc(C(=O)O)cc1S(N)(=O)=O` [Compound 2.8, 4-(octylamino)-3-sulfamoyl-benzoic acid], for which testing at 10 µM gave an inhibition of 0%.

`CC(C)(C)CCNc1ccc(C(=O)O)cc1S(N)(=O)=O` [Compound 2.9, 4-(3,3-dimethylbutylamino)-3-sulfamoyl-benzoic acid] displayed an inhibition at 10 µM of 23%.

Consider `CCCCNc1ccc(C(=O)O)cc1S(=O)(=O)NC` [Compound 3.6, 4-(butylamino)-3-(methylsulfamoyl)benzoic acid], for which the inhibition at 10 µM was 22%.

Take `CCCCCCNc1ccc(C(=O)O)cc1S(=O)(=O)NC` [Compound 3.7, 4-(hexylamino)-3-(methylsulfamoyl)benzoic acid]: testing at 10 µM gave an inhibition of 8%.

As for `CCCCCCCCNc1ccc(C(=O)O)cc1S(=O)(=O)NC` [Compound 3.8, 3-(methylsulfamoyl)-4-(octylamino)benzoic acid], testing at 10 µM gave an inhibition of 0%.

For the compound `CNS(=O)(=O)c1cc(C(=O)O)ccc1NCCC(C)(C)C` [Compound 3.9, 4-(3,3-dimethylbutylamino)-3-(methylsulfamoyl)benzoic acid], testing at 10 µM gave an inhibition of 12%.

`CCCCNc1ccc(C(=O)O)cc1S(=O)(=O)N(C)C` [Compound 3.11, 4-(butylamino)-3-(dimethylsulfamoyl)benzoic acid] showed an inhibition at 10 µM of 0%.

With `CCCCCCNc1ccc(C(=O)O)cc1S(=O)(=O)N(C)C` [Compound 3.12, 3-(dimethylsulfamoyl)-4-(hexylamino)benzoic acid], 10 µM produced 29% inhibition.

In turn, `CCCCCCCCNc1ccc(C(=O)O)cc1S(=O)(=O)N(C)C` [Compound 3.13, 3-(dimethylsulfamoyl)-4-(octylamino)benzoic acid] yielded an inhibition at 10 µM of 0%.

For `CN(C)S(=O)(=O)c1cc(C(=O)O)ccc1NCCC(C)(C)C` [Compound 3.14, 4-(3,3-dimethylbutylamino)-3-(dimethylsulfamoyl)benzoic acid], the inhibition at 10 µM is 0%.

In turn, `CN(C)S(=O)(=O)c1cc(C(=O)O)ccc1NCCCCCCCC(F)(F)F` [Compound 3.17, 3-(dimethylsulfamoyl)-4-(8,8,8-trifluorooctylamino) benzoic acid] yielded an inhibition at 10 µM of 0%.

On to Furosemide [reference compound], for which the “NKCC2 Inhibition % 10 μM Thallium Assay” value was 0%.

The assay is the same for the next values; noted with them: among compounds of the invention.
Consider `CN(C)S(=O)(=O)c1cc(C(=O)O)ccc1NCCCCCCCC(F)(F)F` [Compound 3.17, 3-(dimethylsulfamoyl)-4-(8,8,8-trifluorooctylamino) benzoic acid], for which the NKCC1/NKCC2 selectivity result was “highest”.

The same assay, now with this note: pre-incubation 10 μM.
Turning to `CCCCNc1cc(C(=O)O)cc(S(N)(=O)=O)c1Oc1ccccc1` [Bumetanide, reference compound], the “ion flux and consequent increase in fluorescence in NKCC2-transfected cells” value is listed as “significantly reduced”.

These data come from patent publication US20220184008A1, “MODULATORS OF INTRACELLULAR CHLORIDE CONCENTRATION” (FONDAZIONE ISTITUTO ITALIANO DI TECNOLOGIA, priority 2019, published 2022).
